14 compounds from patent US9988379B2, “GPR40 receptor agonist, methods of preparing the same, and pharmaceutical compositions containing the same as an active agent” (LG CHEM, LTD., priority 2012, dated 2018) can be followed below.

T1 sequence (O14842 whole entry): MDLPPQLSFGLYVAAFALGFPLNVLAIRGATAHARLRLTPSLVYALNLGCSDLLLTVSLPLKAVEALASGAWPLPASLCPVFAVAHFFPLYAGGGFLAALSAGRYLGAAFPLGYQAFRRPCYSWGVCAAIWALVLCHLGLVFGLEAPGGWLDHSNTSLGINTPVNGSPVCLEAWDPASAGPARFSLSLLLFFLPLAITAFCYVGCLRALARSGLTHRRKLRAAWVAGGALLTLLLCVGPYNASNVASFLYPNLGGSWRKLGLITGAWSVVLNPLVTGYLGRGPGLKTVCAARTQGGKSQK

This test concerns the target T1, human GPR40 (Homo sapiens, UniProt O14842).
T1 construct: expressed in transfected cells; host or cells: CHO-K1
Description: Induction of Ca2+ (calcium flux assay) using human GPR40 expression cell line. In kind it is cell-based. Conditions: read-out: EC0.5. As for the experimental part: Evaluation of the Test Compounds for Induction of Ca^2+ Using Human GPR40 Expression Cell Line
The cell line expressing human GPR40 was generated by transfection of the GPR40 expression vector into CHO-K1 cell, and used in the following calcium flux assay.
The cell line was cultured in cell-culture medium (F-12 (Invitrogen) supplemented with 10% (v/v) FBS (Fetal Bovine Serum; Invitrogen), 0.5 mg/ml Geneticin (Invitrogen) and 1% (v/v) Antibiotic-Antimycotic solution (Invitrogen)) under the condition of 5% CO2 and 37° C. For calcium flux assay, the cells were diluted with the cell-culture medium to a concentration of 5×10^5 cells/ml, and the diluted cell suspension was dispensed in amount of 100 μl/well to a 96-well transparent bottom black polystyrene cell culture plate (Corning) and then cultured for 24 hours. The following concentrations of test compounds were added to these cells, and then the changes in intracellular calcium concentration were measured by FlexStation II384 (Molecular Devices). The following solution was prepared before the measurement.
First, a buffer solution for assay was prepared for use in the manufacture of fluorescent dye solution. This buffer solution was prepared by adding 1M HEPES solution (Invitrogen) to HBSS (Hanks' Balanced Salt Solution) (Invitrogen) and then adding 1M NaOH (Nacalai Tesque) to adjust pH to 7.4. Then the fluorescent dye solution was prepared according to the manufacturer's instruction attached to Calcium 5 Assay Kit (Molecular Devices), and the final DMSO concentration was adjusted to 2%.
The fluorescent dye solution was added in an amount of 100 μl/well to supernatant of the cell culture plate cultured for 24 hours. The plate was cultured for 1 hour under the condition of 5% CO2 and 37° C. so that the fluorescent dye was inserted into the cell.
Test compounds (i.e., the compounds prepared in the Examples) dissolved in dimethyl sulfoxide (DMSO ACROS) were diluted 200-fold in the buffer solution for assay to prepare compound solutions corresponding to the respective concentrations. […] 50 μl of the prepared sample solutions was added to each well of 96-well polypropylene plates (NUNC), and thereby a compound plate was prepared. Finally, the compound plate and the cell culture plate cultured for 1 hour with the fluorescent dye were placed in FlexStation II384.
After the above pre-treatment, the change in the intracellular calcium concentration when each concentration of the test compound solutions was added at 50 μl was measured by FlexStation II^384.
Then, the relative activity values depending on the concentration of the compound were plotted using Prism 4 software (GraphPad) to calculate the EC0.5 value.
With `CC#C[C@@H](CC(=O)O)c1ccc(OCc2ccc3ccn(Cc4cccc(CS(C)(=O)=O)c4)c3c2C)cc1` [Example 35, (S)-3-{4-[1-(3-methanesulfonylmethyl-benzyl)-7-methyl-1H-indol-6-ylmethoxy]-phenyl}-hex-4-ynoic acid], the EC50 amounted to 10 nM.
Next, `CC#C[C@@H](CC(=O)O)c1ccc(OCc2ccc3ccn(Cc4ccccc4C)c3c2C)cc1` [Example 36, (S)-3-{4-[7-methyl-1-(2-methyl-benzyl)-1H-indol-6-ylmethoxy]-phenyl}-hex-4-ynoic acid]: 60 nM; `CC#C[C@@H](CC(=O)O)c1ccc(OCc2ccc3ccn(Cc4ccccc4F)c3c2C)cc1` [Example 37, (S)-3-{4-[1-(2-fluoro-benzyl)-7-methyl-1H-indol-6-ylmethoxy]-phenyl}-hex-4-ynoic acid]: 40 nM; `CC#C[C@@H](CC(=O)O)c1ccc(OCc2ccc3ccn(Cc4ccccc4Cl)c3c2C)cc1` [Example 38, (S)-3-{4-[1-(2-chloro-benzyl)-7-methyl-1H-indol-6-ylmethoxy]-phenyl}-hex-4-ynoic acid]: 90 nM.
As to `CC#C[C@@H](CC(=O)O)c1ccc(OCc2ccc3ccn(Cc4c(C)cccc4C)c3c2C)cc1` [Example 39, (S)-3-{4-[1-(2,6-dimethyl-benzyl)-7-methyl-1H-indol-6-ylmethoxy]-phenyl}-hex-4-ynoic acid], the EC50 worked out at 200 nM.
Next, `CC#C[C@@H](CC(=O)O)c1ccc(OCc2ccc3ccn(Cc4ccccc4)c3c2Cl)cc1` [Example 40, (S)-3-[4-(1-benzyl-7-chloro-1H-indol-6-ylmethoxy)-phenyl]-hex-4-ynoic acid]: 60 nM; `CC#C[C@@H](CC(=O)O)c1ccc(OCc2cc3c(ccn3Cc3ccccc3)cc2F)cc1` [Example 41, (S)-3-[4-(1-benzyl-5-fluoro-1H-indol-6-ylmethoxy)-phenyl]-hex-4-ynoic acid]: 1 to 50 nM; `CC#C[C@@H](CC(=O)O)c1ccc(OCc2ccc3ccn(Cc4cccc(F)c4)c3c2C)cc1` [Example 42, (S)-3-{4-[1-(3-fluoro-benzyl)-7-methyl-1H-indol-6-ylmethoxy]-phenyl}-hex-4-ynoic acid]: 50 to 500 nM.
As to `CC#C[C@@H](CC(=O)O)c1ccc(OCc2ccc3ccn(Cc4cccc(C(F)(F)F)c4)c3c2C)cc1` [Example 43, (S)-3-{4-[7-methyl-1-(3-trifluoromethyl-benzyl)-1H-indol-6-ylmethoxy]-phenyl}-hex-4-ynoic acid], the EC50 lay within 50 to 500 nM.
Regarding `CC#C[C@@H](CC(=O)O)c1ccc(OCc2ccc3ccn(Cc4cnc(C)cn4)c3c2C)cc1` [Example 44, (S)-3-{4-[7-methyl-1-(5-methyl-pyrazin-2-ylmethyl)-1H-indol-6-ylmethoxy]-phenyl}-hex-4-ynoic acid], the EC50 lay in the range of 1 to 50 nM.
Consider `CC#C[C@@H](CC(=O)O)c1ccc(OCc2ccc3ccn(Cc4ccc(CS(C)(=O)=O)cc4)c3c2C)cc1` [Example 45, (S)-3-{4-[1-(4-methanesulfonylmethyl-benzyl)-7-methyl-1H-indol-6-ylmethoxy]-phenyl}-hex-4-ynoic acid], for which the EC50 fell in the range of 1 to 50 nM.
The result for `CC#C[C@@H](CC(=O)O)c1ccc(OCc2ccc3ccn(Cc4ccc(Cl)nc4)c3c2C)cc1` [Example 46, (S)-3-{4-[1-(6-chloro-pyridin-3-ylmethyl)-7-methyl-1H-indol-6-ylmethoxy]-phenyl}-hex-4-ynoic acid] reads 1 to 50 nM; that for `CC#C[C@@H](CC(=O)O)c1ccc(OCc2cccc3nn(Cc4ccccc4)cc23)cc1` [Example 47, (S)-3-[4-(2-benzyl-2H-indazol-4-ylmethoxy)-phenyl]-hex-4-ynoic acid], 1 to 50 nM; that for `CC#C[C@@H](CC(=O)O)c1ccc(OCc2cccc3c2cnn3Cc2ccccc2)cc1` [Example 48, (S)-3-[4-(1-benzyl-1H-indazol-4-ylmethoxy)-phenyl]-hex-4-ynoic acid], 1 to 50 nM.
